Usually IC50 stands for the concentration at which inhibition is half-maximal.

This test concerns the target T1, S. aureus ClpP (Staphylococcus aureus, UniProt Q2G036).
T1 construct: S. aureus ClpP expressed from the GAL1 promoter in S. cerevisiae
The test is described as follows: yeast surrogate genetic assay: ClpP-dependent growth inhibition vs. empty vector. The class given is cell-based.

T1 sequence (Q2G036 whole entry): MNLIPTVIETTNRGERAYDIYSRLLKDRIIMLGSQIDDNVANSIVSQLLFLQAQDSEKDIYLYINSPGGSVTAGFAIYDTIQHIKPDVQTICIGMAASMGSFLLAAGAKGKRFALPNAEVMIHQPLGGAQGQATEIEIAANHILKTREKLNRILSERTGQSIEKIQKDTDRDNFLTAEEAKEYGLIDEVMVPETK

With `O=C1C2=C(CCN(Cc3ccccc3)C2)N2CCN=C2N1Cc1ccc(C(F)(F)F)cc1` [ONC212], the IC50 amounted to 5.4 µM. This counts as single-digit micromolar.

These data come from paper PMC7153937, “Imipridone Anticancer Compounds Ectopically Activate the ClpP Protease and Represent a New Scaffold for Antibiotic Development” (Genetics, 2020).
